US7732401B2, “Inhibitor of TGF-β activation reaction” (Riken, priority 2007, dated 2010)
Where no end group is shown, it is not given here.

Experiments:
[1] = tested on: endotoxin (LPS)-preadministered partially-hepatectomized mice; experiment: LPS-preadministered partially-hepatectomized mice model for impaired liver regeneration, PCNA staining; format: in vivo, mouse; conditions: Example 5, 200 μg/head i.v., 8 times; for percentage of PCNA positive cells: 48 hours after PH, FIG. 10; for improvement of impaired liver regeneration caused by preadministration of LPS: PCNA staining, FIG. 9
Experimental: For the experiment, 26 five-week-old male C3H/HeN mice were used. After completion of quarantine and environmental acclimatization, the mice were divided into the following 5 groups according to the body weight of each mouse on the day of grouping. These include, a group to which saline was preadministered and saline was then administered (G1: n=6); a group to which LPS was preadministered and saline was then administered (G2: n=6); a group to which LPS was preadministered and QP peptide was then administered (G3: n=4); a group to which LPS was preadministered and QPA peptide was then administered (G4: n=4); and a group to which LPS was preadministered and T200 peptide was then administered (G5: n=6) (Table 2).
After starting the test, 7 μg of LPS (saline in the case of G1) was intraperitoneally administered. Forty-eight hours later, partial hepatectomy was carried out on all the mice. Another forty-eight hours later, all the surviving mice were subjected to an autopsy. In the autopsy, blood was collected. Thereafter, 1 to 3 mice from each group were subjected to systemic perfusion with 4% paraformaldehyde (PFA), and the liver was then excised. All the excised lobes were embedded in an embedding agent “Tissue Mount” in a frozen state. On the other hand, the remaining 1 to 3 mice from each group were not subjected to systemic perfusion, and a portion of the liver was fixed with formalin, and the remaining portion was collected to be used as a frozen sample (used for mRNA and for protein quantitation). The organ that had been fixed with formalin was processed into a block, and it was then preserved together with the frozen sample in a deep freezer at −80° C.
Preparation method: A small amount of saline was added to one vial container that contained 5 mg of LPS, and it was then dissolved therein. Subsequently, the resultant solution was transferred into another container, and saline was then gradually added thereto to a total amount of 5 mL. The thus obtained solution was defined as a 1 μg/μL solution. 350 μL was collected from the obtained solution by precise weighing, and it was then added to a container that contained 4.65 mL of a sterilized normal saline solution (solvent). Thereafter, the mixed solution was filtrated and sterilized using a 0.22-μm filter, and the resultant was used as a sample to be administered. 7.2 LPS Administration Method Dose: 7 μg/head Administration route: intraperitoneal administration Administration volume: 0.1 mL/head Administration number: once (single administration) Administration timing: 48 hours before partial hepatectomy Target animal: G2 to G5 (To G1, saline was administered.) 8. Administration of Test Substance 8.1 Preparation of Peptide-Administering Sample Preparation frequency: once Preparation method: A peptide was dissolved in saline to a concentration of 2 mg/ml, and the resultant was used as a sample to be administered. Preservation method: The sample was preserved in a refrigerator before use. (The temperature was set at 4° C.) 8.2 Peptide Administration Method Dose: 200 μg/head Administration route: intravenous administration Administration volume: 0.11 mL/head Administration timing: 50, 38, 24, 14 and 2 hours before, and 10, 24 and 34 after partial hepatectomy Number of administration: twice/day, for 4 days (in principle, at 9:00 and at 19:00), 8 times in total Target animal: […] (To G1 and G2, saline was administered.) 9. Partial Hepatectomy (⅔ Partial Hepatectomy; PH) 9.1 Treating Method
Using a rotary microtome (Leica), a hepatic tissue section with a thickness of 5 μm was prepared from the embedded hepatic tissues. A proliferating cell nuclear antigen (PCNA; a proliferating cell marker) was stained according to the previously reported method (Greenwell A. et al., Cancer Lett 1991; 59: 251-256) using a Histofine kit (Nichirei Corporation). […]

plasma kallikrein = molecular target: T1, plasma kallikrein (Homo sapiens, UniProt P03952); experiment: Cleavage of recombinant human LAP by plasma kallikrein, Western blot semi-quantitative analysis; format: biochemical; conditions: Example 3, peptide 2.5 mg/ml, 37° C., 40 minutes, FIG. 6
T1 construct: purchased SIGMA
Experimental: When 2 μg of recombinant human LAP R & D) (final concentration: 66 μg/ml) was incubated with plasma kallikrein (SIGMA; final concentration of 20 μg/ml), QP peptide, QPA peptide, T200 peptide, and QPQ peptide (SEQ ID NO: 4) were added thereto at a final concentration of 2.5 mg/ml, followed by incubation at 37° C. for 40 minutes. Thereafter, electrophoresis (room temperature, 27 mA, 50 minutes) was carried out using 13.5% polyacrylamide gel, so as to separate LAP (molecular weight: 41 kDa), a LAP degradation product (molecular weight: 38 kDa), and BSA (final concentration: 0.3 mg/ml; molecular weight: […]) used as an additive. Each separated protein or decomposed product was transferred onto a PVDF membrane by using a semi-dry transferring apparatus. According to the method of Akita et al. (Gastroenterology 123; 352-364, 2002), the membrane was then incubated first with a mouse anti-LAP monoclonal antibody (R & D) at a final concentration of 5 μg/ml or a mouse anti-L59 cleavage section-recognizing monoclonal antibody (homemade; International Publication WO2005/023870) at a final concentration of 20 μg/ml, at room temperature for 60 minutes, and then with a horseradish peroxidase-conjugated goat anti-mouse second antibody (Jackson ImmunoResearch Laboratories) at a final concentration of 1 μg/ml at room temperature for 60 minutes. Bands were then developed using an ECL plus reagent (GE Healthcare), so as to carry out the semi-quantitative analysis of the influence of each peptide on the attenuation of LAP band and the generation of LAP degradation product (FIG. 6).

TGF-β1 = experiment: Amount of TGF-β1 in hepatic tissues of LPS-preadministered partially-hepatectomized mice (ELISA); format: in vivo, mouse; conditions: 200 μg/head i.v.; for Hepatic TGF-β1 Contents: Table 3
Experimental: A liver extract was prepared from approximately 100 mg of the hepatic tissues prepared for the use in protein quantitation in 11.2 above, according to the method of Okuno M. et al. (Okuno M. et al., Gastroenterology 2001; 120: 1784-1800). The amount of TGF-β1 in the extract was quantitated using an ELISA kit manufactured by PROMEGA. The quantitated TGF-β1 amount was presented as a pg/mg of protein.
A liver extract was prepared from approximately 30 mg of the hepatic tissues prepared for the use in protein quantitation in 11.2 above, according to the method of Okuno M. et al. (Okuno M. et al., Gastroenterology 2001; 120: 1784-1800). The amount of TGF-β1 in the extract was determined using an ELISA kit manufactured by PROMEGA. The amount of TGF-β1 was presented as a pg/mg protein of the sample. Other conditions were the same as those described in Example 2.

T1 sequence (P03952 20-638, species assumed): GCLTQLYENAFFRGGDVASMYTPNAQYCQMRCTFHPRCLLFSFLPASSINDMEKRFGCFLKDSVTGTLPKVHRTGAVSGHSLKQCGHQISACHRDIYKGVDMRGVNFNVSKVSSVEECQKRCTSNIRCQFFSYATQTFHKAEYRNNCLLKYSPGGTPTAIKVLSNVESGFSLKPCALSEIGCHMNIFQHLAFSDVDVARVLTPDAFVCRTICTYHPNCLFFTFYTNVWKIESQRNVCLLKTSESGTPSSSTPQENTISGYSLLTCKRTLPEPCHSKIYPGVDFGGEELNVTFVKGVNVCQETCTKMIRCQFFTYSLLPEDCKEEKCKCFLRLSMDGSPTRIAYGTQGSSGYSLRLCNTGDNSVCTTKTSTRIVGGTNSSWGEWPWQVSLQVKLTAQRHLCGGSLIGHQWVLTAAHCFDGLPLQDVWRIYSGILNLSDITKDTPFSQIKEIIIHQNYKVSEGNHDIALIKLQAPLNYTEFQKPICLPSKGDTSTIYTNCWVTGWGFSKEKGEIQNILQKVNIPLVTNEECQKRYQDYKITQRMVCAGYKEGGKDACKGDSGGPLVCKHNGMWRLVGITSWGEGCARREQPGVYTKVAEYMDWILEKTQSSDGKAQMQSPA

| Substance | percentage of PCNA positive cells [1] [%] | improvement of impaired liver regeneration caused by preadministration of LPS [1] | inhibition of LAP cleavage reaction (attenuation of LAP band, generation of LAP degradation product) (plasma kallikrein) | hepatic contents of TGF-β1, times higher than the value of the control group (TGF-β1; Example 2, LPS + PH) | Hepatic TGF-β1 Contents (TGF-β1; Example 2, LPS + PH) [pg/mg protein] | hepatic contents of TGF-β1, times higher than the value of the control group (TGF-β1; Example 5, LPS + PH, FIG. 11) |
| --- | --- | --- | --- | --- | --- | --- |
| TGVVRQWLSRG [T200 peptide, reference compound] | 45 | did not exhibit such an improving effect | only a weak inhibitory effect | approximately 3 times | 20 ± 26 | 3.1 times |
| QILSKLRLASP [QP peptide] | 66 | significantly improved | significantly inhibited |  |  | approximately 1.6 times |
| N-52QILSQQQQASP62-C [QPQ peptide, mutant of QP peptide with Lys56, Leu57, Arg58 and Leu59 substituted with Gln] | 64 | significantly improved | more strongly than the QP peptide |  |  | approximately 1.6 times |
| N-52QILSAAAAASP62-C (QILSAAALASP) [QPA peptide, mutant of QP peptide with Lys56, Leu57, Arg58 and Leu59 substituted with Ala] | 70 | significantly improved | only a weak inhibitory effect | approximately 1.4 times | 10 ± 11 | ~0.7 times |
